These results are taken from PubChem BioAssay AID226 (DTP/NCI, 2004).

Where “and” joins values, the source holds several entries; their conditions need not be identical. Equal entries are not always repeated. Inconclusive results and toxic doses are left out.

The subject of this experiment is B6C3F1 mice, intracerebral ependymoblastoma, median survival T/C. The experiment in a line: NCI In Vivo Anticancer Drug Screen. Data for tumor model Ependymoblastoma (intracerebral) in B6C3F1 mice. As to conditions: endpoint: median survival time, higher = longer survival. Here is the method:
The antitumor activity of compounds was measured in mice bearing transplantable tumors. Survival or tumor size were measured and the results are expressed as the measurement made in the treated group (T) divided by the measurement made in the vehicle treated control group (C). The tumor model used in this assay is Ependymoblastoma (intracerebral) in B6C3F1 mice

The mark [1] stands for this setting: dose: 12.0 mg/kg/injection, schedule: Q01DX005 (ip), vehicle: saline with Tween-80.
[2] abbreviates: dose: 2.0 mg/kg/injection, schedule: Q01DX005 (ip), vehicle: saline.
Setting [3] is: dose: 4.0 mg/kg/injection, schedule: Q01DX005 (ip), vehicle: saline.
The mark [4] stands for this setting: dose: 16.0 mg/kg/injection, schedule: Q01DX005 (ip), vehicle: saline.
The mark [5] stands for this setting: dose: 32.0 mg/kg/injection, schedule: Q01DX005 (ip), vehicle: saline.
The mark [6] stands for this setting: dose: 64.0 mg/kg/injection, schedule: Q01DX005 (ip), vehicle: saline.
Setting [7] is: dose: 8.0 mg/kg/injection, schedule: Q01DX005 (ip), vehicle: saline.

Turning to `N=c1ccn2c(n1)OC1C(O)C(CO)OC12` (stereo not drawn), the T/C is 118 % of control (dose: 37.5 mg/kg/injection, schedule: Q01DX005 (ip), vehicle: saline); 104 % of control (dose: 75.0 mg/kg/injection, schedule: Q01DX005 (ip), vehicle: saline); 92 % of control and 94 % of control and 109 % of control (dose: 100.0 mg/kg/injection, schedule: Q01DX001 (ip), vehicle: saline); 115 % of control (dose: 150.0 mg/kg/injection, schedule: Q01DX005 (ip), vehicle: saline); 100 % of control (2×) and 101 % of control (dose: 200.0 mg/kg/injection, schedule: Q01DX001 (ip), vehicle: saline); 95 % of control and 98 % of control and 112 % of control (dose: 400.0 mg/kg/injection, schedule: Q01DX001 (ip), vehicle: saline). Also, the T/C was 106 % of control and 112 % of control and 123 % of control (dose: 800.0 mg/kg/injection, schedule: Q01DX001 (ip), vehicle: saline); 99 % of control and 105 % of control and 115 % of control (dose: 1600.0 mg/kg/injection, schedule: Q01DX001 (ip), vehicle: saline).
For `O=c1n(CC2CO2)c(=O)n(CC2CO2)c(=O)n1CC1CO1` (stereo not drawn), the T/C reads like this: (dose: 16.4 mg/kg/injection, schedule: Q01DX004 (ip), vehicle: saline) 113 % of control; (dose: 16.4 mg/kg/injection, schedule: Q01DX009 (ip), vehicle: saline) 107 % of control; (dose: 20.0 mg/kg/injection, schedule: Q01DX009 (ip), vehicle: saline) 117 % of control and 119 % of control; (dose: 20.5 mg/kg/injection, schedule: Q01DX004 (ip), vehicle: saline) 111 % of control; (dose: 20.5 mg/kg/injection, schedule: Q01DX009 (ip), vehicle: saline) 112 % of control; (dose: 25.0 mg/kg/injection, schedule: Q01DX005 (ip), vehicle: saline with Tween-80) 98 % of control. Further, the T/C was 107 % of control (dose: 25.6 mg/kg/injection, schedule: Q01DX004 (ip), vehicle: saline); 113 % of control (dose: 25.6 mg/kg/injection, schedule: Q01DX009 (ip), vehicle: saline); 165 % of control (dose: 30.0 mg/kg/injection, schedule: Q01DX009 (ip), vehicle: saline); 115 % of control (dose: 32.0 mg/kg/injection, schedule: Q01DX004 (ip), vehicle: saline); 121 % of control (dose: 32.0 mg/kg/injection, schedule: Q01DX009 (ip), vehicle: saline); 95 % of control (dose: 49.2 mg/kg/injection, schedule: Q01DX001 (ip), vehicle: saline). The T/C by setting is: (dose: 50.0 mg/kg/injection, schedule: Q01DX009 (ip), vehicle: saline) 113 % of control; (dose: 61.4 mg/kg/injection, schedule: Q01DX001 (ip), vehicle: saline) 109 % of control; (dose: 76.8 mg/kg/injection, schedule: Q01DX001 (ip), vehicle: saline) 112 % of control; (dose: 96.0 mg/kg/injection, schedule: Q01DX001 (ip), vehicle: saline) 106 % of control; (dose: 120.0 mg/kg/injection, schedule: Q01DX001 (ip), vehicle: saline) 121 % of control; (dose: 150.0 mg/kg/injection, schedule: Q01DX001 (ip), vehicle: saline) 119 % of control.
With `COc1ccc2c(c1)CCC(c1ccccc1)=C2c1ccc(OCCN2CCCC2)cc1`, the T/C was 106 % of control (dose: 8.0 mg/kg/injection, schedule: Q01DX005 (ip), vehicle: Klucel (hydroxypropylcellulose) (HPC)); 108 % of control under setting [1]; 106 % of control (dose: 16.0 mg/kg/injection, schedule: Q01DX005 (ip), vehicle: Klucel (hydroxypropylcellulose) (HPC)); 110 % of control (dose: 24.0 mg/kg/injection, schedule: Q01DX005 (ip), vehicle: saline with Tween-80); 110 % of control (dose: 32.0 mg/kg/injection, schedule: Q01DX005 (ip), vehicle: Klucel (hydroxypropylcellulose) (HPC)); 104 % of control (dose: 48.0 mg/kg/injection, schedule: Q01DX005 (ip), vehicle: saline with Tween-80). Also, the T/C reads like this: (dose: 64.0 mg/kg/injection, schedule: Q01DX005 (ip), vehicle: Klucel (hydroxypropylcellulose) (HPC)) 101 % of control; (dose: 96.0 mg/kg/injection, schedule: Q01DX005 (ip), vehicle: saline with Tween-80) 107 % of control.
Take `NC(=S)N/N=C/c1ccc(O)cn1`: the T/C is 102 % of control (dose: 12.0 mg/kg/injection, schedule: Q01DX005 (ip), vehicle: saline); 107 % of control (dose: 24.0 mg/kg/injection, schedule: Q01DX005 (ip), vehicle: saline); 110 % of control (dose: 48.0 mg/kg/injection, schedule: Q01DX005 (ip), vehicle: saline); 115 % of control (dose: 96.0 mg/kg/injection, schedule: Q01DX005 (ip), vehicle: saline).
For `O=NN(CCCl)C(=O)NC1OC(CO)C(O)C(O)C1O` (stereo not drawn), the T/C is 104 % of control (dose: 0.31 mg/kg/injection, schedule: Q01DX009 (ip), vehicle: saline); 115 % of control (dose: 0.63 mg/kg/injection, schedule: Q01DX009 (ip), vehicle: saline); 119 % of control (dose: 1.0 mg/kg/injection, schedule: Q01DX005 (ip), vehicle: saline); 113 % of control under setting [2]; 108 % of control (dose: 4.0 mg/kg/injection, schedule: Q01DX001 (ip), vehicle: saline); 122 % of control under setting [3]. Also, the T/C runs as follows: (dose: 8.0 mg/kg/injection, schedule: Q01DX001 (ip), vehicle: saline) 105 % of control; (dose: 16.0 mg/kg/injection, schedule: Q01DX001 (ip), vehicle: saline) 105 % of control; (dose: 32.0 mg/kg/injection, schedule: Q01DX001 (ip), vehicle: saline) 100 % of control; (dose: 64.0 mg/kg/injection, schedule: Q01DX001 (ip), vehicle: saline) 108 % of control; (dose: 128.0 mg/kg/injection, schedule: Q01DX001 (ip), vehicle: saline) 94 % of control.
`CC(C)(C)N1CC1CNC(=O)C(=O)NCC1CN1C(C)(C)C` (stereo not drawn): the T/C was 96 % of control (dose: 1.5 mg/kg/injection, schedule: Q01DX005 (ip), vehicle: saline with Tween-80); 102 % of control and 112 % of control (dose: 3.0 mg/kg/injection, schedule: Q01DX005 (ip), vehicle: saline with Tween-80); 112 % of control (dose: 3.12 mg/kg/injection, schedule: Q01DX005 (ip), vehicle: saline with Tween-80); 102 % of control and 114 % of control (dose: 6.0 mg/kg/injection, schedule: Q01DX005 (ip), vehicle: saline with Tween-80); 116 % of control (dose: 6.25 mg/kg/injection, schedule: Q01DX005 (ip), vehicle: saline with Tween-80); 115 % of control and 119 % of control under setting [1].
`F`: the T/C under setting [4] was 112 % of control, the T/C under setting [5] was 107 % of control and the T/C under setting [6] is 105 % of control.
As to `S=P(N1CC1)(N1CC1)N1CC1`, the T/C under setting [7] was 169 % of control.
As to `CN(CCO)/N=N/c1nc[nH]c1C(N)=O`, the T/C is 116 % of control under setting [5]; 109 % of control and 112 % of control under setting [6]; 114 % of control (dose: 128.0 mg/kg/injection, schedule: Q01DX005 (ip), vehicle: saline); 124 % of control (dose: 256.0 mg/kg/injection, schedule: Q01DX005 (ip), vehicle: saline).
For `N[C@H](C(=O)O)[C@@H]1CC(Cl)=NO1`, the T/C is 112 % of control (dose: 1.0 mg/kg/injection, schedule: Q01DX005 (ip), vehicle: saline + Tween-80 + alcohol); 106 % of control (dose: 2.0 mg/kg/injection, schedule: Q01DX005 (ip), vehicle: saline + Tween-80 + alcohol); 97 % of control and 111 % of control under setting [2]; 114 % of control (dose: 4.0 mg/kg/injection, schedule: Q01DX005 (ip), vehicle: saline + Tween-80 + alcohol); 104 % of control and 121 % of control under setting [3]; 118 % of control (dose: 8.0 mg/kg/injection, schedule: Q01DX005 (ip), vehicle: saline + Tween-80 + alcohol). Further, the T/C reads like this: under setting [7], 111 % of control and 117 % of control; (dose: 16.0 mg/kg/injection, schedule: Q01DX005 (ip), vehicle: saline + Tween-80 + alcohol) 89 % of control; under setting [4], 109 % of control and 124 % of control; under setting [5], 111 % of control.
